Calls of active or inactive are those of the source. No rule for the calls is given here.

In general, inhibition refers to the relative decrease from the control value, in per cent.

In the assay the target is Receptor-type tyrosine-protein kinase FLT3 (Homo sapiens) (UniProt P36888). Description: inhibitors of Homo sapiens fms-like tyrosine kinase 3, primary HTS, cell-free, LANCE Ultra TR-FRET, NPC library from NCATS (AID 1117356). The following applies: recombinant FLT3, LANCE Ultra TR-FRET kinase assay, stronger effect = higher value.
Chain of Receptor-type tyrosine-protein kinase FLT3 (Homo sapiens) (P36888 whole entry, looked up): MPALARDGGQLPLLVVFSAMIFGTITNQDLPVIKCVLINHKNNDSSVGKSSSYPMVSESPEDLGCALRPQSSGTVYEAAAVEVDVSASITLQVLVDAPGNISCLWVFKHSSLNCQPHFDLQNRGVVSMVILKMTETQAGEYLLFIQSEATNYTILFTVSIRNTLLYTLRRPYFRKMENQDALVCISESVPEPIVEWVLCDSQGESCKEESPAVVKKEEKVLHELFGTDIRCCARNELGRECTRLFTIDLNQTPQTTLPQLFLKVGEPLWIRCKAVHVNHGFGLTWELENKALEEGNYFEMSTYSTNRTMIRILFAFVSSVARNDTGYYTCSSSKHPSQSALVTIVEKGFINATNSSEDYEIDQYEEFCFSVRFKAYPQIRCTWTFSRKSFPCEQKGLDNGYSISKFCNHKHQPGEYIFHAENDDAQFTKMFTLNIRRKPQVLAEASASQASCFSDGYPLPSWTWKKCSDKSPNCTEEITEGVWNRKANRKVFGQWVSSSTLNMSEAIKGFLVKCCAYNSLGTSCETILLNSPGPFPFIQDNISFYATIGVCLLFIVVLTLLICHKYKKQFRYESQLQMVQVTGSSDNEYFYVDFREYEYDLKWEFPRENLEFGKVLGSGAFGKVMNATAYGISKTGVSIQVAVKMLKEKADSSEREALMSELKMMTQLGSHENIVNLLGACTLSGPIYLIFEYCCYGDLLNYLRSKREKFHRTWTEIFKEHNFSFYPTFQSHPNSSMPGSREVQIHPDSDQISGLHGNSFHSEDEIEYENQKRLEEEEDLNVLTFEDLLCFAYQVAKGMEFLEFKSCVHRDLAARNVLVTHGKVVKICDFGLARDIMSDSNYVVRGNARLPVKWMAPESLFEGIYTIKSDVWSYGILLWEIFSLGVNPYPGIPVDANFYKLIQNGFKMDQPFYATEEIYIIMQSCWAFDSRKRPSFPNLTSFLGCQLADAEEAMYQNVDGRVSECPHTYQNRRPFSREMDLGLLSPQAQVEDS

For the molecule `O=C(CCCCCCC(=O)Nc1ccccc1)NO`, the inhibition (at 20 µM) is -5.57% (inactive); the inhibition (inhibition, at 0.2 µM) was -26.9%; the inhibition (inhibition, at 2 µM) stood at 8.74%.
As to `CNC(=O)c1ccccc1Sc1ccc2c(/C=C/c3ccccn3)n[nH]c2c1`, the inhibition by setting is: (at 20 µM) 76.9%; (inhibition, at 0.2 µM) 12.4%; (inhibition, at 2 µM) 76.3%.
Taken in the same sequence, the figures for `CCN(CC)CCOc1ccc(/C(=C(\Cl)c2ccccc2)c2ccccc2)cc1` were -2.64% (inactive), -10.4% and -9.83%.
On to `COC(=O)Nc1nc2ccc(C(=O)C3CC3)cc2[nH]1`, for which the inhibition (at 20 µM) is 68.8%; the inhibition (inhibition, at 0.2 µM) is -3.31%; the inhibition (inhibition, at 2 µM) is 33.1%.
In the same order, the values of `O=[N+]([O-])c1ccc(O)c2ncccc12` are 7.93% (inactive), -14.3% and 3.78%.
On to `COCc1c(C(C)C)nc(C(C)C)c(/C=C/[C@@H](O)C[C@@H](O)CC(=O)O)c1-c1ccc(F)cc1`, for which the inhibition runs as follows: (at 20 µM) 8.38% (inactive); (inhibition, at 0.2 µM) -11.4%; (inhibition, at 2 µM) 11.1%.
In the same order, the values of `COC(=O)Nc1nc2ccc(Sc3ccccc3)cc2[nH]1` are -9.66% (inactive), -10.8% and 5.38%.
As to `CCN(CC)CCNc1ccc(CO)c2sc3ccccc3c(=O)c12`, the inhibition runs as follows: (at 20 µM) 27.1% (inactive); (inhibition, at 0.2 µM) -16.8%; (inhibition, at 2 µM) 6.21%.
In the same order, the values of `Cc1nc(N)nc(N)c1-c1ccc(Cl)c(Cl)c1` are 14.5% (inactive), -7.85% and 8.61%.
For `COC(=O)Nc1nc2ccc(C(=O)c3ccccc3)cc2[nH]1`, the inhibition (at 20 µM) was 11.7% (inactive); the inhibition (inhibition, at 0.2 µM) is -25.2%; the inhibition (inhibition, at 2 µM) worked out at 8.15%.
As for `O=C(Nc1ccc([N+](=O)[O-])cc1Cl)c1cc(Cl)ccc1O`, the inhibition reads like this: (at 20 µM) 19.6% (inactive); (inhibition, at 0.2 µM) -17.5%; (inhibition, at 2 µM) 12.3%.
Consider `CC[C@]1(O)C[C@@H]2CN(CCc3c([nH]c4ccccc34)[C@@](C(=O)OC)(c3cc4c(cc3OC)N(C)[C@H]3[C@@](O)(C(=O)OC)[C@H](OC(C)=O)[C@]5(CC)C=CCN6CC[C@]43[C@@H]65)C2)C1`, for which the inhibition is -5.73% (inactive) (at 20 µM); -16.1% (inhibition, at 0.2 µM); 13.8% (inhibition, at 2 µM).
For the molecule `CCC1=C[C@@H]2CN(C1)Cc1c([nH]c3ccccc13)[C@@](C(=O)OC)(c1cc3c(cc1OC)N(C)[C@H]1[C@@](O)(C(=O)OC)[C@H](OC(C)=O)[C@]4(CC)C=CCN5CC[C@]31[C@@H]54)C2`, the inhibition runs as follows: (at 20 µM) -1.29% (inactive); (inhibition, at 0.2 µM) -17.1%; (inhibition, at 2 µM) 7.24%.
Taken in the same sequence, the figures for `Cc1cc(C)c(/C=C2\C(=O)Nc3ccccc32)[nH]1` were 97.7%, 93.8% and 98.6%.
Take `COC(=O)[C@H]1[C@H]2C[C@@H]3c4[nH]c5cc(OC)ccc5c4CCN3C[C@H]2C[C@@H](OC(=O)/C=C/c2ccc(O)c(OC)c2)[C@@H]1OC`: the inhibition was -11.1% (inactive) (at 20 µM); -33.5% (inhibition, at 0.2 µM); -4.17% (inhibition, at 2 µM).
In the same order, the values of `CCCCCCCCCCCCCCCC[n+]1ccccc1` are -7.99% (inactive), -19.8% and 2.47%.
As to `NC(=NCCCCCCN=C(N)/N=C(\N)Nc1ccc(Cl)cc1)/N=C(\N)Nc1ccc(Cl)cc1`, the inhibition by setting is: (at 20 µM) 10.1% (inactive); (inhibition, at 0.2 µM) -2.84%; (inhibition, at 2 µM) 22.6%.
Regarding `CCCSc1ccc2nc(NC(=O)OC)[nH]c2c1`, the inhibition reads like this: (at 20 µM) 10.2% (inactive); (inhibition, at 0.2 µM) -15.1%; (inhibition, at 2 µM) 22.7%.
Taken in the same sequence, the figures for `COC(=O)Nc1nc2ccc(S(=O)c3ccccc3)cc2[nH]1` (stereo not drawn) were -8.2% (inactive), -15.5% and 16.7%.
For `CCc1nc(N)nc(N)c1-c1ccc(Cl)cc1`, the inhibition (at 20 µM) is -9.63% (inactive); the inhibition (inhibition, at 0.2 µM) is -33.1%; the inhibition (inhibition, at 2 µM) came out at 1%.
With `CC(C)C[C@H](NC(=O)[C@H](CCc1ccccc1)NC(=O)CN1CCOCC1)C(=O)N[C@@H](Cc1ccccc1)C(=O)N[C@@H](CC(C)C)C(=O)[C@@]1(C)CO1`, the inhibition was 8.47% (inactive) (at 20 µM); -8.96% (inhibition, at 0.2 µM); 15% (inhibition, at 2 µM).
Taken in the same sequence, the figures for `CSc1ccc2c(c1)C(N1CCN(C)CC1)Cc1ccccc1S2` (stereo not drawn) were 44.8% (inactive), -5.03% and 16.4%.
On to `C[C@@]12C(=O)OC(=O)[C@]1(C)C1CCC2O1`, for which the inhibition by setting is: (at 20 µM) -4.71% (inactive); (inhibition, at 0.2 µM) -12.1%; (inhibition, at 2 µM) 6.97%.
For the molecule `[O-][n+]1ccccc1SSc1cccc[n+]1[O-]`, the inhibition is -9.22% (inactive) (at 20 µM); -25.4% (inhibition, at 0.2 µM); 5.1% (inhibition, at 2 µM).
With `CC[C@@]1(O)C(=O)OCc2c1cc1n(c2=O)Cc2c-1nc1ccccc1c2/C=N/OC(C)(C)C`, the inhibition was -19.6% (inactive) (at 20 µM); -33.4% (inhibition, at 0.2 µM); -2.36% (inhibition, at 2 µM).
Taken in the same sequence, the figures for `CC[C@]1(O)C[C@H]2CN(CCc3c([nH]c4ccccc34)[C@@](C(=O)OC)(c3cc4c(cc3OC)N(C=O)[C@H]3[C@@](O)(C(=O)OC)[C@H](OC(C)=O)[C@]5(CC)C=CCN6CC[C@]43[C@@H]65)C2)C1` were -0.99% (inactive), -6.96% and -3.21%.
Consider `CC(=O)[C@]1(O)Cc2c(O)c3c(c(O)c2[C@@H](O[C@H]2C[C@H](N)[C@H](O)[C@H](C)O2)C1)C(=O)c1ccccc1C3=O`, for which the inhibition (inhibition, at 0.2 µM) was -8.58% and the inhibition (inhibition, at 2 µM) is -59.1%.
Consider `S=c1nc[nH]c2nc[nH]c12`, for which the inhibition runs as follows: (at 20 µM) -15% (inactive); (inhibition, at 0.2 µM) -36.3%; (inhibition, at 2 µM) -4.89%.
Regarding `O=c1c(-c2ccccc2)c1-c1ccccc1`, the inhibition reads like this: (at 20 µM) 41.7% (inactive); (inhibition, at 0.2 µM) -22%; (inhibition, at 2 µM) 10.9%.
`C=CC(=O)Nc1cc2c(Nc3ccc(F)c(Cl)c3)ncnc2cc1OCCCN1CCOCC1`: the inhibition reads like this: (at 20 µM) 96.3%; (inhibition, at 0.2 µM) 14.3%; (inhibition, at 2 µM) 79.6%.
On to `COc1cc2nc(N3CCN(C(=O)c4ccco4)CC3)nc(N)c2cc1OC`, for which the inhibition is 17.2% (inactive) (at 20 µM); -0.58% (inhibition, at 0.2 µM); 8.33% (inhibition, at 2 µM).
Regarding `O=C1c2c(O)ccc(O)c2C(=O)c2c(NCCNCCO)ccc(NCCNCCO)c21`, the inhibition by setting is: (at 20 µM) -19.7% (inactive); (inhibition, at 0.2 µM) -9.01%; (inhibition, at 2 µM) 36.3%.
Consider `COc1ccc(-c2ccc3cc(C(=O)O)ccc3c2)cc1C12CC3CC(CC(C3)C1)C2`, for which the inhibition runs as follows: (at 20 µM) 29.6% (inactive); (inhibition, at 0.2 µM) -12.3%; (inhibition, at 2 µM) -71.5%.

The values are drawn from PubChem BioAssay AID1117356 (Cheminformatics & Chemogenomics Research Group (CCRG), …, 2015).
